This note sets out measurements from US12435112B2, “Adenovirus comprising a modified adenovirus hexon protein” (UNIVERSITÄT ULM, priority 2019, dated 2025).

This assay has as its system MSCs. Description: Transduction of MSCs with or without enhancing molecules. The format is cell-based, human. The conditions noted are these: enhancer pre-incubated with adenovirus. As for the experimental part: Transduction of MSCs by HAdV5 or HAdV5-Mut3, with or without Enhancing Molecules
MSCs were seeded in 1 mL PL-containing BioWhittaker® Alpha minimum essential medium (Lonza) in 24-well plates. The next day, the indicated viral vector particles were pre-incubated with or without enhancing molecules for 30 minutes at 37° C. in a total volume of 300 μL in PL-free medium. As enhancing molecules, Factor X (250-2000 ng/mL), Spermidine (1-625 ng/μL), Spermine (1-1000 ng/μL), Polybrene (0.08-81 μg/μL), Poly-L-Lysine (1-25% v/v) and Lactoferrin (1-1000 μg/mL) were used. Subsequently, MSCs were washed and 500 μL PL-free medium was provided. Cells were transduced by adding 300 μL of the pre-incubated viral particles (resulting in the indicated pMOI) and incubated for 2 hours at 37° C. Afterwards, cells were washed, and 1 mL of PL-containing medium was added. 72 hours after transduction, MSCs were detached and eGFP expression was analyzed by flow cytometry.
Amount of Enhancers Used for Pre-Incubation of HAdV5:
Transduction of MSCs by HAdV5, HAdV5-Mut3, HAdV5-ΔCAR-Mut3, HAdV5-ΔHVR1 or HAdV5-Mut2
Transduction of MSCs with a pMOI of 1000 was performed as described in section “Transduction of MSCs by HAdV5 or HAdV5-Mut3, with or without enhancing molecules”, except that MSCs were detached and eGFP expression was analyzed by flow cytometry 24 hours after transduction. No enhancing molecules were used.

As for `NCCCCNCCCN` [Spermidine], the “enhanced transduction of MSCs with adenoviruses by transduction enhancer” value is reported as “most pronounced”.

`NCCCNCCCCNCCCN` [Spermine]: the “enhanced transduction of MSCs with adenoviruses by transduction enhancer” value is “most pronounced”.
